From US9828385B2, “Spiro-oxazolones” (Hoffmann-La Roche Inc., priority 2014, dated 2017)

Target: T1, human V1a receptor (Homo sapiens, UniProt P37288)
T1 construct: expressed in transfected cells; host or cells: HEK293 cells, transiently transfected; cell membranes
Assay: human V1a receptor binding studies (3H-Vasopressin, SPA beads)
Conditions: membranes of HEK293 cells transiently transfected with human V1a receptor, Ki by Cheng-Prussoff from IC50, read-out: pKi hV1a (converted)
Method in brief: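 Membranes from transiently transfected HEK293 cells expressing cloned human V1a receptor, on yttrium silicate SPA beads, competed against 4 nM 3H-vasopressin (added stock concentration) in Tris buffer with NaCl, KCl, CaCl2, MgCl2 for 1 h at room temperature. Nonspecific binding with cold vasopressin; IC50 by nonlinear fit, Ki via Cheng-Prusoff.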

T1 sequence (P37288 whole entry): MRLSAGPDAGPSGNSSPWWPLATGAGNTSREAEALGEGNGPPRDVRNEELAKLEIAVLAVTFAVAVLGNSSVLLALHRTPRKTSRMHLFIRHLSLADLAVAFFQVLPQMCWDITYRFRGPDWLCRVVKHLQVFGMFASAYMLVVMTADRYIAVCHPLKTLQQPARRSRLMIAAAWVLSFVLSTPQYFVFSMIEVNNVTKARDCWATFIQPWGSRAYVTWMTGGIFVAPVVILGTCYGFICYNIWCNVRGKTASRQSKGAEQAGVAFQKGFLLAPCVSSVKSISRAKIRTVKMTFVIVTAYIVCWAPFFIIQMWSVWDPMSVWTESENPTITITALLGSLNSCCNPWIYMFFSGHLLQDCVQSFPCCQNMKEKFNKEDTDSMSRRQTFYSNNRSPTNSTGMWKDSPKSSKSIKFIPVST

| Structure (SMILES) | Ki |
| --- | --- |
| O=C1N=C(N2CCC3(CC2)OCc2ccccc23)OC1CC1CCCC1 (single isomer, unassigned; enantiomer b) [Example 14, 5-(Cyclopentylmethyl)-2-(1′H,3H-spiro[2-benzofuran-1,4′-piperidin]-1′-yl)-1,3-oxazol-4(5H)-one enantiomer B] | 2.51 nM |
| O=C1OC2(CCN(C3=NC(=O)C(CC4CCCC4)O3)CC2)c2ccccc21 (single isomer, unassigned; enantiomer b) [Example 16, 1′-[5-(Cyclopentylmethyl)-4-oxo-4,5-dihydro-1,3-oxazol-2-yl]-3H-spiro[2-benzofuran-1,4′-piperidin]-3-one enantiomer B] | 12.6 nM |
| CC1(Cc2ccccc2)OC(N2CCC3(CC2)OC(=O)c2ccccc23)=NC1=O (single isomer, unassigned; enantiomer b) [Example 73, 1′-[5-Benzyl-5-methyl-4-oxo-4,5-dihydro-1,3-oxazol-2-yl]-3H-spiro[2-benzofuran-1,4′-piperidin]-3-one enantiomer B] | 251 nM |
| CC1(Cc2ccc(Cl)cc2)OC(N2CCC3(CC2)OC(=O)c2ccccc23)=NC1=O (single isomer, unassigned; enantiomer b) [Example 81, 1′-[5-(4-Chlorobenzyl)-5-methyl-4-oxo-4,5-dihydro-1,3-oxazol-2-yl]-3H-spiro[2-benzofuran-1,4′-piperidin]-3-one enantiomer B] | 501 nM |
| CCCC1OC(N2CCC3(CC2)OCc2ccccc23)=NC1=O (stereo not drawn) [Example 1, 5-Propyl-2-(1′H,3H-spiro[2-benzofuran-1,4′-piperidin]-1′-yl)-1,3-oxazol-4(5H)-one] | 79.4 nM |
| CCCCC1OC(N2CCC3(CC2)OCc2ccccc23)=NC1=O (stereo not drawn) [Example 2, 5-Butyl-2-(1′H,3H-spiro[2-benzofuran-1,4′-piperidin]-1′-yl)-1,3-oxazol-4(5H)-one] | 5.01 nM |
| CC(C)CC1OC(N2CCC3(CC2)OCc2ccccc23)=NC1=O (stereo not drawn) [Example 7, 5-(2-Methylpropyl)-2-(1′H,3H-spiro[2-benzofuran-1,4′-piperidin]-1′-yl)-1,3-oxazol-4(5H)-one] | 20 nM |
| C=CCC1OC(N2CCC3(CC2)OCc2ccccc23)=NC1=O (stereo not drawn) [Example 8, 5-(Prop-2-en-1-yl)-2-(1′H,3H-spiro[2-benzofuran-1,4′-piperidin]-1′-yl)-1,3-oxazol-4(5H)-one] | 158 nM |
| C=C(C)CC1OC(N2CCC3(CC2)OCc2ccccc23)=NC1=O (stereo not drawn) [Example 9, 5-(2-Methylprop-2-en-1-yl)-2-(1′H,3H-spiro[2-benzofuran-1,4′-piperidin]-1′-yl)-1,3-oxazol-4(5H)-one] | 2 nM |
| C=C(CC1OC(N2CCC3(CC2)OCc2ccccc23)=NC1=O)C(F)(F)F (stereo not drawn) [Example 10, 2-(1′H,3H-Spiro[2-benzofuran-1,4′-piperidin]-1′-yl)-5-[2-(trifluoromethyl)prop-2-en-1-yl]-1,3-oxazol-4(5H)-one] | 3.98 nM |
| O=C1N=C(N2CCC3(CC2)OCc2ccccc23)OC1c1ccccc1 (stereo not drawn) [Example 12, 5-Phenyl-2-(1′H,3H-spiro[2-benzofuran-1,4′-piperidin]-1′-yl)-1,3-oxazol-4(5H)-one] | 316 nM |
| O=C1N=C(N2CCC3(CC2)OCc2ccccc23)OC1C(O)c1ccc(Cl)cc1 (stereo not drawn) [Example 40, 5-[(4-Chlorophenyl)(hydroxy)methyl]-2-(1′H,3H-spiro[2-benzofuran-1,4′-piperidin]-1′-yl)-1,3-oxazol-4(5H)-one] | 3.98 nM |
| CC(=O)OC(c1ccc(Cl)cc1)C1OC(N2CCC3(CC2)OCc2ccccc23)=NC1=O (stereo not drawn) [Example 41, (4-Chlorophenyl)[4-oxo-2-(1′H,3H-spiro[2-benzofuran-1,4′-piperidin]-1′-yl)-4,5-dihydro-1,3-oxazol-5-yl]methyl acetate] | 31.6 nM |
| C=CCC1(CC(=C)F)OC(N2CCC3(CC2)OCc2ccccc23)=NC1=O (stereo not drawn) [Example 54, 5-Allyl-5-(2-fluoroallyl)-2-(3H-spiro[isobenzofuran-1,4′-piperidine]-1′-yl)oxazol-4(5H)-one] | 631 nM |
| CC#CCC1(CC#CC)OC(N2CCC3(CC2)OCc2ccccc23)=NC1=O [Example 55, 5,5-Di(but-2-ynyl)-2-(3H-spiro[isobenzofuran-1,4′-piperidine]-1′-yl)oxazol-4(5H)-one] | 5.01 nM |
| C=C(C)CC1(CC(=C)C)OC(N2CCC3(CC2)OCc2ccccc23)=NC1=O [Example 56, 5,5-bis(2-Methylprop-2-en-1-yl)-2-(1′H,3H-spiro[2-benzofuran-1,4′-piperidin]-1′-yl)-1,3-oxazol-4(5H)-one] | 15.8 nM |
| C#CCC1(CC=C)OC(N2CCC3(CC2)OCc2ccccc23)=NC1=O (stereo not drawn) [Example 57, 5-(Prop-2-en-1-yl)-5-(prop-2-yn-1-yl)-2-(1′H,3H-spiro[2-benzofuran-1,4′-piperidin]-1′-yl)-1,3-oxazol-4(5H)-one] | 39.8 nM |

More lines, now with the values ahead:

| Ki | Structure (SMILES) |
| --- | --- |
| 5.01 nM | O=C1OC2(CCN(C3=NC(=O)C(Cc4ccccc4)O3)CC2)c2ccccc21 (single isomer, unassigned; enantiomer b) [Example 21, 1′-[5-Benzyl-4-oxo-4,5-dihydro-1,3-oxazol-2-yl]-3H-spiro[2-benzofuran-1,4′-piperidin]-3-one enantiomer B] |
| 50.1 nM | CC#CCC1OC(N2CCC3(CC2)OCc2ccccc23)=NC1=O (stereo not drawn) [Example 11, 5-(But-2-yn-1-yl)-2-(1′H,3H-spiro[2-benzofuran-1,4′-piperidin]-1′-yl)-1,3-oxazol-4(5H)-one] |
| 3.98 nM | O=C1N=C(N2CCC3(CC2)OCc2ccccc23)OC1Cc1ccccc1 (stereo not drawn) [Example 17, 5-Benzyl-2-(1′H,3H-spiro[2-benzofuran-1,4′-piperidin]-1′-yl)-1,3-oxazol-4(5H)-one] |
| 1.58 nM | O=C1N=C(N2CCC3(CC2)OCc2ccccc23)O[C@@H]1Cc1ccccc1 [Example 18, (+)-(5R)-5-Benzyl-2-(1′H,3H-spiro[2-benzofuran-1,4′-piperidin]-1′-yl)-1,3-oxazol-4(5H)-one] |
| 25.1 nM | O=C1N=C(N2CCC3(CC2)OCc2ccccc23)O[C@H]1Cc1ccccc1 [Example 19, (−)-(5S)-5-Benzyl-2-(1′H,3H-spiro[2-benzofuran-1,4′-piperidin]-1′-yl)-1,3-oxazol-4(5H)-one] |
| 1.26 nM | CC1OC2(CCN(C3=NC(=O)C(Cc4ccccc4)O3)CC2)c2ccccc21 (stereo not drawn) [Example 22, 5-Benzyl-2-(3-methyl-1′H,3H-spiro[2-benzofuran-1,4′-piperidin]-1′-yl)-1,3-oxazol-4(5H)-one] |
| 2.51 nM | O=C1N=C(N2CCC3(CC2)OCc2cccc(F)c23)OC1Cc1ccccc1 (stereo not drawn) [Example 23, 5-Benzyl-2-(7-fluoro-1′H,3H-spiro[2-benzofuran-1,4′-piperidin]-1′-yl)-1,3-oxazol-4(5H)-one] |
| 6.31 nM | O=C1N=C(N2CCC3(CC2)OCc2c(F)cccc23)OC1Cc1ccccc1 (stereo not drawn) [Example 24, 5-Benzyl-2-(4-fluoro-1′H,3H-spiro[2-benzofuran-1,4′-piperidin]-1′-yl)-1,3-oxazol-4(5H)-one] |
| 6.31 nM | O=C1N=C(N2CCC3(CC2)OCc2ccc(F)cc23)OC1Cc1ccccc1 (stereo not drawn) [Example 25, 5-Benzyl-2-(6-fluoro-1′H,3H-spiro[2-benzofuran-1,4′-piperidin]-1′-yl)-1,3-oxazol-4(5H)-one] |
| 0.631 nM | CC1(C)OC2(CCN(C3=NC(=O)C(Cc4ccccc4)O3)CC2)c2ccccc21 (stereo not drawn) [Example 26, 5-Benzyl-2-(3,3-dimethyl-1′H,3H-spiro[2-benzofuran-1,4′-piperidin]-1′-yl)-1,3-oxazol-4(5H)-one] |
| 15.8 nM | O=C1OC2(CCN(C3=NC(=O)C(Cc4ccccc4)O3)CC2)c2ccc(F)cc21 (stereo not drawn) [Example 27, 1′-(5-Benzyl-4-oxo-4,5-dihydro-1,3-oxazol-2-yl)-5-fluoro-3H-spiro[2-benzofuran-1,4′-piperidin]-3-one] |
| 79.4 nM | O=C1N=C(N2CCC3(CC2)OCc2ncccc23)OC1Cc1ccccc1 (stereo not drawn) [Example 28, 5-Benzyl-2-(1′H,7H-spiro[furo[3,4-b]pyridine-5,4′-piperidin]-1′-yl)-1,3-oxazol-4(5H)-one] |
| 10 nM | O=C1N=C(N2CCC3(CC2)OCc2cccnc23)OC1Cc1ccccc1 (stereo not drawn) [Example 29, 5-Benzyl-2-(1′H,5H-spiro[furo[3,4-b]pyridine-7,4′-piperidin]-1′-yl)-1,3-oxazol-4(5H)-one] |
| 200 nM | O=C1OC2(CCN(C3=NC(=O)C(Cc4ccccc4)O3)CC2)c2cccc(F)c21 (stereo not drawn) [Example 30, 1′-(5-Benzyl-4-oxo-4,5-dihydro-1,3-oxazol-2-yl)-4-fluoro-3H-spiro[2-benzofuran-1,4′-piperidin]-3-one] |
| 100 nM | COc1ccc2c(c1)C(=O)OC21CCN(C2=NC(=O)C(Cc3ccccc3)O2)CC1 (stereo not drawn) [Example 31, 1′-(5-Benzyl-4-oxo-4,5-dihydro-1,3-oxazol-2-yl)-5-methoxy-3H-spiro[2-benzofuran-1,4′-piperidin]-3-one] |
| 63.1 nM | O=C1OC2(CCN(C3=NC(=O)C(Cc4ccccc4)O3)CC2)c2ccc(Br)cc21 (stereo not drawn) [Example 32, 1′-(5-Benzyl-4-oxo-4,5-dihydro-1,3-oxazol-2-yl)-5-bromo-3H-spiro[2-benzofuran-1,4′-piperidin]-3-one] |
| 12.6 nM | O=C1N=C(N2CCC3(CC2)SCc2ccccc23)OC1Cc1ccccc1 (stereo not drawn) [Example 33, 5-Benzyl-2-(1′H,3H-spiro[2-benzothiophene-1,4′-piperidin]-1′-yl)-1,3-oxazol-4(5H)-one] |
| 10 nM | O=C1N=C(N2CCC3(CC2)c2ccccc2CS3(=O)=O)OC1Cc1ccccc1 (stereo not drawn) [Example 34, 5-Benzyl-2-(2,2-dioxido-1′H,3H-spiro[2-benzothiophene-1,4′-piperidin]-1′-yl)-1,3-oxazol-4(5H)-one] |
| 2 nM | O=C1N=C(N2CCC3(CC2)OCc2ccccc23)OC1Cc1ccc(Cl)cc1 (stereo not drawn) [Example 35, 5-(4-Chlorobenzyl)-2-(1′H,3H-spiro[2-benzofuran-1,4′-piperidin]-1′-yl)-1,3-oxazol-4(5H)-one] |
